Data taken from ChEMBL document CHEMBL5257037, “Side Chain Cyclized Aromatic Amino Acids: Great Tools as Local Constraints in Peptide and Peptidomimetic Design” (J Med Chem, 2016).
Each block holds one compound with its values, some of them ahead of it. Where a SMILES comes first, the peptide text is derived from it. Bridges are numbered along the chain shown (N, C = ends). [ ]: non-standard residue; d: D form. Aic = NC1(C(=O)O)Cc2ccccc2C1; dOrn = NCCC[C@@H](N)C(=O)O; Orn = NCCC[C@H](N)C(=O)O

Tests used:
[1] = biological target: Angiotensin-converting enzyme (Homo sapiens, UniProt P12821); test: Inhibition of angiotensin-converting enzyme (unknown origin)
Neprilysin [2] = biological target: Neprilysin (Homo sapiens, UniProt P08473); test: Inhibition of neutral endopeptidase (unknown origin)
[3] = biological target: T1, Angiotensin-converting enzyme (Oryctolagus cuniculus, UniProt P12822); test: Inhibition of rabbit lung angiotensin-converting enzyme; format: tissue-based
T1 sequence (P12822 whole entry): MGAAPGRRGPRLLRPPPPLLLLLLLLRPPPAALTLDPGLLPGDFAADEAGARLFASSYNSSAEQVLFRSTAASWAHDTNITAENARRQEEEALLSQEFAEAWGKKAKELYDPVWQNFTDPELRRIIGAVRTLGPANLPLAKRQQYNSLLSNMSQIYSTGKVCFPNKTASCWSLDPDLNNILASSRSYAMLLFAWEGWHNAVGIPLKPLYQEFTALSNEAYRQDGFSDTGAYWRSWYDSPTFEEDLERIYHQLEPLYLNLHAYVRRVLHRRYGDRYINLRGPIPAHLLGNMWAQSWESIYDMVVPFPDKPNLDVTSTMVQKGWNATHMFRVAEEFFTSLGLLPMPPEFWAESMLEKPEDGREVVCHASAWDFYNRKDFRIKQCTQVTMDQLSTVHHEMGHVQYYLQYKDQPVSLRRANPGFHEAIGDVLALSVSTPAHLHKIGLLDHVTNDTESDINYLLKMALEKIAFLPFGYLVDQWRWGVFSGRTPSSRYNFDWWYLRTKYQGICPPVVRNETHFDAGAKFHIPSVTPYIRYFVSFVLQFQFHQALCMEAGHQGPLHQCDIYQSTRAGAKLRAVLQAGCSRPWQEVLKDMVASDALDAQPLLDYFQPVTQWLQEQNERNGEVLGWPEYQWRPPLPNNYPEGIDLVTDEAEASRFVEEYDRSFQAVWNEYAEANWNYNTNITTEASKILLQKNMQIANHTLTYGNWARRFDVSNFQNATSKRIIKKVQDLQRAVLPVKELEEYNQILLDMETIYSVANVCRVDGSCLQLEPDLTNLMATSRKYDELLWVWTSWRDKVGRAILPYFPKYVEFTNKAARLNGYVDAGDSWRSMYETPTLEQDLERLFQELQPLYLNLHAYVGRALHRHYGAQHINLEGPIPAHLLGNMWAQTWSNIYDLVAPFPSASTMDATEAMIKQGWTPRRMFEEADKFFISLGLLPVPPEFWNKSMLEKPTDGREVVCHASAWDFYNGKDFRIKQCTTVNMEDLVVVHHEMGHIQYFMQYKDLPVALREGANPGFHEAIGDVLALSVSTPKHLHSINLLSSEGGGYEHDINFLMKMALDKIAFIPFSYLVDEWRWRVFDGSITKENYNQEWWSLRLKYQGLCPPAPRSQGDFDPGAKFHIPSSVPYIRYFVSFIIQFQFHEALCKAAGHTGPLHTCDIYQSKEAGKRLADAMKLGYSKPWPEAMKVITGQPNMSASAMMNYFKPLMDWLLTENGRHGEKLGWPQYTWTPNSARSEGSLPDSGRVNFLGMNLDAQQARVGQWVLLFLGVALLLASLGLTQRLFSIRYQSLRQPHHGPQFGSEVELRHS

[4] = biological target: T1, Angiotensin-converting enzyme; test: Binding affinity to angiotensin-converting enzyme in rabbit lung assessed as inhibition constant; format: tissue-based
Neprilysin [5] = biological target: T2, Neprilysin (Rattus norvegicus, UniProt P07861); test: Binding affinity to rat kidney neutral endopeptidase; format: tissue-based
T2 sequence (P07861 whole entry): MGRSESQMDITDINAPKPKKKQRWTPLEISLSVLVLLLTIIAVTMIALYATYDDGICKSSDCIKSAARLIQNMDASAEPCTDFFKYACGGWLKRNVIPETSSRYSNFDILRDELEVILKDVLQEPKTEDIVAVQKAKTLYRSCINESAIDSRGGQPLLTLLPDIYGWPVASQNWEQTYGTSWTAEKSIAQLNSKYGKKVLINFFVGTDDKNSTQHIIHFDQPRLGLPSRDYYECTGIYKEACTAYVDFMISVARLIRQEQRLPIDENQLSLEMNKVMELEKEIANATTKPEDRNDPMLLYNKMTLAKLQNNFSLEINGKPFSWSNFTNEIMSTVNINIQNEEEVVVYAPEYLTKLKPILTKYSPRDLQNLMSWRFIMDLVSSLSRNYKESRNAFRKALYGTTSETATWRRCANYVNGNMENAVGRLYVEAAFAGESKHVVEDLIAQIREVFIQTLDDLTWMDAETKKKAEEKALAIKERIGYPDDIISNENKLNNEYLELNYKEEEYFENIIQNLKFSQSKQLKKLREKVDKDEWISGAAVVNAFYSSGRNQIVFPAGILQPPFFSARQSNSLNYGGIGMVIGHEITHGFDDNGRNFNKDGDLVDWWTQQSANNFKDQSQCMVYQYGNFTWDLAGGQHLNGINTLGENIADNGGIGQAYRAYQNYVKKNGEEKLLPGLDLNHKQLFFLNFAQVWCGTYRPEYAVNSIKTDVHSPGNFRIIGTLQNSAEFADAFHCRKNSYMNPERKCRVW

[6] = biological target: Somatostatin receptor type 4 (Homo sapiens, UniProt P31391); test: Inhibition of human somatostatin receptor type 4
[7] = biological target: Somatostatin receptor type 1 (Homo sapiens, UniProt P30872); test: Inhibition of human somatostatin receptor type 1
[8] = biological target: Somatostatin receptor type 2 (Homo sapiens, UniProt P30874); test: Inhibition of human somatostatin receptor type 2
[9] = biological target: Somatostatin receptor type 5 (Homo sapiens, UniProt P35346); test: Inhibition of human somatostatin receptor type 5
[10] = biological target: Somatostatin receptor type 3 (Homo sapiens, UniProt P32745); test: Inhibition of human somatostatin receptor type 3
[11] = biological target: T3, Somatostatin receptor type 5 (Rattus norvegicus, UniProt P30938); test: Inhibition of rat somatostatin receptor type 5
T3 sequence (P30938 whole entry): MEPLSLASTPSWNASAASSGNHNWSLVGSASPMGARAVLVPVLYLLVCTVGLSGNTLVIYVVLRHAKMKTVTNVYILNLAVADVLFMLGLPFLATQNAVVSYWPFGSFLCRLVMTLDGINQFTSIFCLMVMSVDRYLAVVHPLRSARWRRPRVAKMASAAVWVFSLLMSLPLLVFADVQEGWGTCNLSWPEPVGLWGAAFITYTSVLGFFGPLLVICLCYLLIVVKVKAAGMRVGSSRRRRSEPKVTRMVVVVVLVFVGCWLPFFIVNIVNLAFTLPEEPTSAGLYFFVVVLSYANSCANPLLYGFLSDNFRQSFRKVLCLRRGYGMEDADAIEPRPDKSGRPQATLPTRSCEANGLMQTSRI

Renin = biological target: T4, Renin (Homo sapiens, UniProt P00797); test: Inhibition of human plasma renin; format: cell-free
T4 sequence (P00797 whole entry): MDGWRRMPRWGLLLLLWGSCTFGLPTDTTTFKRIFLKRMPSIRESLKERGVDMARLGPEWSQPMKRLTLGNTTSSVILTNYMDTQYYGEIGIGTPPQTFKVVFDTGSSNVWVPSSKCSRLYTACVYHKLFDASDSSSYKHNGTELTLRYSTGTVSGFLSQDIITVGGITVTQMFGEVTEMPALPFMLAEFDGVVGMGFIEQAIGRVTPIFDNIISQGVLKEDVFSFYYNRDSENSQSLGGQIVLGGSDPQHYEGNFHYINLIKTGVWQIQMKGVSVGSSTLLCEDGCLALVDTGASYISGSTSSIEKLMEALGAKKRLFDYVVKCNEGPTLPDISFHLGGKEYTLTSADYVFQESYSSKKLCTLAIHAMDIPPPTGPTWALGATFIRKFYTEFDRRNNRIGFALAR

[12] = Inhibition of angiotensin-converting enzyme (unknown origin)
Mu-type opioid receptor [13] = biological target: T5, Mu-type opioid receptor (Homo sapiens, UniProt P35372); test: Binding affinity to mu opioid receptor (unknown origin) assessed as inhibition constant
[14] = biological target: T6, Delta-type opioid receptor (Homo sapiens, UniProt P41143); test: Binding affinity to delta opioid receptor (unknown origin) assessed as inhibition constant
Mu-type opioid receptor [15] = biological target: T5, Mu-type opioid receptor; test: Inhibition of MOR (unknown origin)
[16] = biological target: T6, Delta-type opioid receptor; test: Inhibition of DOR (unknown origin)
Mus musculus = species on record: Mus musculus; test: Inhibition of electrically evoked mouse vas deferens contraction; format: functional

- IC50 [1]: 14 nM
- IC50 (Neprilysin [2]): 3.9 nM
SMILES: C[C@H](NC(=O)[C@@H](CS)Cc1ccccc1)C(=O)N1Cc2ccccc2C[C@H]1C(=O)O

- IC50 [1]: 7.8 nM
- IC50 (Neprilysin [2]): 2.6 nM
SMILES: C[C@H](NC(=O)[C@@H](CS)Cc1ccccc1)C(=O)N1c2ccccc2C[C@H]1C(=O)O

- IC50 [3]: 5.2 nM
SMILES: O=C(O)[C@H](CCc1ccccc1)N[C@H]1CCc2cccc3c2N(C1=O)[C@H](C(=O)O)C3

- Ki [4]: 0.11 nM
- Ki (Neprilysin [5]): 0.08 nM
SMILES: O=C(N[C@H]1Cc2ccccc2[C@H]2CCC[C@@H](C(=O)O)N2C1=O)[C@@H](S)Cc1ccccc1

- IC50 [6]: > 1000 nM
- IC50 [7]: > 1000 nM
- IC50 [8]: > 1000 nM
- IC50 [9]: > 1000 nM
- IC50 [10]: > 1000 nM
SMILES: CC(=O)N[C@@H](Cc1ccccc1)C(=O)N[C@]1(C)Cc2c([nH]c3ccccc23)CN([C@@H](CCCCN)C(=O)N[C@H](C(N)=O)[C@@H](C)O)C1=O

- IC50 [6]: 36 nM
- IC50 [7]: 253 nM
- IC50 [11]: 217 nM
SMILES: CC(=O)N[C@@H](Cc1ccccc1)C(=O)N[C@@H]1Cc2c([nH]c3ccccc23)CN([C@@H](CCCCN)C(=O)N[C@H](C(N)=O)[C@@H](C)O)C1=O

- Ki [4]: 4.5 nM
- Ki (Neprilysin [5]): 0.07 nM
SMILES: O=C(N[C@H]1Cc2ccccc2[C@H]2CCC[C@@H](C(=O)O)N2C1=O)[C@H](S)Cc1ccccc1

- IC50 (Renin): 0.84 nM
SMILES: CCCCNC(=O)[C@@H](C[C@H](O)[C@H](CC1CCCCC1)NC(=O)[C@H](CCCC)NC(=O)[C@H](Cc1ccccc1)NC(C)=O)C(C)C

- IC50 [12]: 58000 nM
SMILES: CC(CS)C(=O)N1CCc2ccccc2C1C(=O)O (stereo not drawn)

- IC50 [12]: 14000 nM
SMILES: CC(CS)C(=O)N1Cc2ccccc2C1C(=O)O (stereo not drawn)

- IC50 [6]: > 1000 nM
- IC50 [7]: > 1000 nM
- IC50 [8]: > 1000 nM
- IC50 [9]: > 1000 nM
- IC50 [10]: > 1000 nM
SMILES: CC(=O)N[C@@H](Cc1ccccc1)C(=O)N[C@@H](Cc1c[nH]c2ccccc12)C(=O)N[C@@H](CCCCN)C(=O)N[C@H](C(N)=O)[C@@H](C)O (Ac-FWKT-NH2)

SMILES: NC(=O)[C@@H]1CCC(=O)NCCC[C@H](NC(=O)[C@@H](N)Cc2ccc(O)cc2)C(=O)NC2(Cc3ccccc3C2)C(=O)N1 (H-Y[Orn][Aic]E-NH2; lactam 2-4)
- Ki (Mu-type opioid receptor [13]): 4.21 nM
- Ki [14]: 209 nM

SMILES: C[C@@H](NC(=O)[C@@H](N)Cc1ccc(O)cc1)C(=O)N[C@@H](Cc1ccccc1)C(=O)NCC(N)=O (H-Y[dA]FG-NH2)
- IC50 (Mu-type opioid receptor [15]): 36.7 nM
- IC50 [16]: 1250 nM

SMILES: CC(C)[C@H](NC(=O)[C@H](CC(=O)O)NC(=O)C1(NC(=O)[C@@H](C)NC(=O)[C@@H](N)Cc2ccc(O)cc2)Cc2ccccc2C1)C(=O)N[C@H](C(=O)NCC(N)=O)C(C)C (H-Y[dA][Aic]DVVG-NH2)
- IC50 (Mus musculus): 0.08 nM
- Ki [14]: 4.96 nM

SMILES: NC(=O)[C@@H]1CCC(=O)NCCC[C@@H](NC(=O)[C@@H](N)Cc2ccc(O)cc2)C(=O)N[C@@H](Cc2ccccc2)C(=O)N1 (H-Y[dOrn]FE-NH2; lactam 2-4)
- Ki (Mu-type opioid receptor [13]): 0.98 nM
- Ki [14]: 3.21 nM
